In patent US8318186B2, “Use of at least a fatty ester for preparing a composition designed to inhibit 5-α-reductase activity, in pharmacology, in particular dermatology, in cosmetics and as food additive” (Laboratoires Expanscience, priority 2000, dated 2012):

Biological target: T1, 5α-reductase (Homo sapiens, UniProt P18405)
T1 construct: endogenous in cells; host or cells: DU145 prostate carcinoma cells (ATCC HTB 81)
T1 sequence (P18405 1-259): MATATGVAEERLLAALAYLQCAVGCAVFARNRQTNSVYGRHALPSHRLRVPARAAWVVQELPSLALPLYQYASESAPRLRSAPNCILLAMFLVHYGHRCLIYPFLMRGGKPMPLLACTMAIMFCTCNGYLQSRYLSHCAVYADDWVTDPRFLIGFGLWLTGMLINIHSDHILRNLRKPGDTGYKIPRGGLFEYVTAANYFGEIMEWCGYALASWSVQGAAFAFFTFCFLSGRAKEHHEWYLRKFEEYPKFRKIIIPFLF
Test: Inhibition of the 5α-reductase of DU145 cells: quantity of 5-dihydrotestosterone formed from testosterone (RIA)
Type: cell-based
Procedure: The prostatic cells DU145 are derived from a tumor line obtained from a prostate carcinoma (ATCC No. HTB 81). The MEM medium (ref. 0410265), the glutamine and the gentamycin are from Gibco. The fetal calf serum (FCS) is from DAP and is used decomplementized ([…] at 56° C.). The plastics serving for the culture (dishes and plates) are from Costar. The testosterone is from Sigma.
A stock solution in ethanol at 10 mg/ml is prepared from each of the products tested.
The concentration range used for the experiments is the following: 0, 5, 10, 50, 100 and 500 micrograms/ml. (Dilution performed in the culture medium).
The volume of extract added per well being 20 microliters/well, the solutions to be prepared are concentrated 50×.
A stock solution of testosterone at 10 mM is prepared in ethanol. At the time of its use, this solution is diluted 1:1 000 in the culture medium and 10 microliters are added per well.
The prostatic cells DU145 are cultured at 37° C., 5% Co2 in an MEM medium containing glutamine (2 mM), gentamycin (50 micrograms/ml) and 10% FCS. Their subculture rate is 1:10.
Before starting the experiment, the cells are placed in culture in 6-well plates at the rate of 2×10^5 DU145 cells per well/1 ml of medium containing only 1% FCS. The cells are maintained for 3 days at 37° C., 5% CO2. […]

CCCCCCCC/C=C\CCCCCCCC(=O)OC [Methyl oleate, methyl oleate]
5α-reductase inhibitory activity, in words (conclusions of Example 2): markedly less active than the methyl esters of avocado
IC50 (testosterone 0.1 micromolar, 3 hours, read-out: IC 50, conversion of testosterone to 5-dihydrotestosterone by the DU 145 cells (converted)): 1300 µM
